Experimental data published in patent US9345744B2, “Peptide-based collagen modulators for wound healing and tissue repair” (MUSC FOUNDATION FOR RESEARCH DEVELOPMENT, priority 2012, dated 2016).
“Also recorded” adds a separate entry of the source. Where two headings read alike, the source gives them in different places.

Assays:
HMVECs = assay: ATP release from endothelial cells; type: cell-based, human
Description: FIG. 15. ATP is released from endothelial cells in response to low Ca^2+ and the inflammatory cytokine IL-6. HMVECs were treated for 5 hours with either nothing or IL-6 (0.01 ng/mL). After the 5 hr incubation, HBSS (w/Ca^2+ and Mg^2+)—25 mM HEPES was added to one set of controls (“Control”) and the IL-6 treated cells for 5 min. To the other set of control wells, HBSS (w/o Ca^2+ and Mg^2+)—25 mM HEPES was added as a positive control for Cx43 hemichannel-mediated ATP release (“Low Ca^2+”). The error bars represent the standard error for replicates within the same experiment.
The possibility that Cx43 acts as a mediator of inflammation through hemichannel mediated release of ATP was further examined Studies on ATP release in the HeLa cell models, as well as primary human microvascular endothelial cells (HMVECs), were performed. […] However, the inventors also observed that, in preliminary experiments, ATP released in response to low Ca^2+ was not inhibited by treatment with mefloquine, a commonly used connexin channel blocker. Endothelial cells may also release ATP through vesicular exocytotic mechanisms in a Ca^2+ dependent manner (Bodin and Burnstock, 2001; McDonald et al., 2010). Pannexin channels, which can also mediate ATP release, are similarly sensitive to mefloquine (Lohman et al., 2012; Bodin et al, 2001).

[1] = test system: U87 MG glioblastoma cells; conditions: cited from earlier work
NIH-3T3 cells = conditions: 30 μM, cited from earlier work
C6 glioma cell line = conditions: cited from earlier work
[2] = test system: C57BL/6 mouse, laser-induced CNV; conditions: cited from earlier work
adult mouse skin wound = conditions: cited from earlier work
[3] = cited from earlier work
[4] = test system: implants in skeletal muscle; assay: Inflammatory infiltrate at implants, myeloperoxidase stain; type: in vivo; conditions: 24 hour time point
Excerpt: In attempting to quantify the neutrophil infiltrate using a myeloperoxidase stain, the inventors observed that some of the cells stained darker than others. Upon further investigation, these cells were not neutrophils as but rather were macrophages.

CD1 mice, LV cryo-injury = conditions: cited from earlier work
ARPE19 cell = conditions: cited from earlier work
adult rat brain injury = conditions: 100 μM in 2% collagen vehicle; cited from earlier work
Cx43 hemichannel = target: T1, Cx43 hemichannel (Homo sapiens, UniProt P17302); conditions: Rhett et al., 2011; cited from earlier work
T1 construct: expressed in transfected cells

[5] = test system: myocytes from neonatal rats; conditions: 30 μM, 5 days; cited from earlier work
SD rat cornea = conditions: cited from earlier work
[6] = test system: neonatal mouse skin wound; conditions: cited from earlier work
[7] = test system: Sprague-Dawley rats with silicone disks; conditions: cited from earlier work
[8] = test system: neonatal rat cardiac fibroblast cells; assay: Western blot of collagen type I in conditioned media and cell lysates of peptide-treated neonatal cardiac fibroblasts; type: cell-based
Excerpt: Isolation and treatment of Neonatal Cardiac Fibroblasts with Cx43 based peptides (peptides used included ACT1, JM1, JM2, Antenapedia [ANT], reverse ACT1 [Rev], poly Arginine [poly r]). Neonatal cardiac fibroblasts (NHFs) were isolated from 3-4 day old rat hearts by collagenase digestion (100 U/mL) and differential attachment as previously described (Borg et al., 1984). All cells were maintained in Dulbecco's Modified Eagle Medium (DMEM) supplemented with 10% Fetal Bovine Serum and 100 U/mL penicillin G and 100 μg/mL streptomycin and used prior to passage four. For experiments, 40,000 NHFs were plated into the wells of a 24-well tissue culture plate and grown for 24-48 hours. On the day of treatment, media was removed from each well and replaced with fresh media containing 50 μg/mL L-ascorbic acid-2-phosphate; Sigma Chemical Co., St. Louis, Mo.). The appropriate volume of each peptide (resuspended in sterile, deionized 18 MΩ resistivity water) was added to achieve the desired final concentration (30, 90, 180 μM peptide concentrations were tested). Culture plates were incubated overnight in a 37° C. incubator with 5% CO2.
Conditioned culture media was collected from each well and stored at −20° C. for analysis of soluble collagen. Cellular protein, including insoluble collagen and collagen still within the NHFs, were isolated by adding 100-200 μL of cell lysis buffer (0.01 M Tris, pH 7.4, 0.001 M Sodium Orthovanadate, 1% sodium dodecylsulfate [SDS]) to each well and incubating 10 minutes at room temperature. Prior to addition, cell lysis buffer was warmed to facilitate solubilzation of SDS and 100 μL of Halt protease inhibitor (Pierce Biotechnology, Rockford, Ill.) was added per 10 mL buffer to be used. […] Protein concentrations of cell lysates were determined using a Micro BCA assay (Pierce). […] The presence of collagen was determined by probing the membranes with a rabbit anti-mouse collagen type I antibody (MD Biosciences) at 1:20,000 dilution in blocking buffer (5% milk in Tris-buffered saline) followed by a goat anti-rabbit IgG horseradish peroxidase conjugated antibody at 1:100,000 (Southern Biotech Associates) and detection with Pierce SuperSignal Femto West detection reagent (Pierce).
To assess the activity of JM1 and JM2 peptides with respect to collagen production and their potential in mediating wound healing, cardiac fibroblasts were treated with these two peptides and their effectiveness compared to that for the previous described Cx43 peptide ACT1. NHFs were treated with various concentrations of JM1, JM2, ACT1, and ANT (Antenapedia) peptides, vehicle (water) or left untreated and the production of collagen both in the culture media and cell-associated collagen assessed by western blotting. […]

rat skin wound = conditions: cited from earlier work
[9] = test system: Sprague Dawley rats, latissimus dorsi muscle; assay: Silicon wafer implant with exogenous ATP or apyrase, histology at 24 hours; type: in vivo, rat; conditions: for inflammatory infiltrate in the implant region: implant plus exogenous agent
Excerpt: FIG. 16. A composite panel of microscopy images taken from H&E stained sections of muscle tissue adjacent to the silicon implant. […] The other images in the panel are high magnification showing areas of high inflammation and necrosis bottom two panels and relatively low inflammation away from the implant site, upper right. The top right set of images is from the tissue adjacent to the implant that had also been treated with exogenous ATP. […] And that by modulating the ATP signal we can potentially modulate the initial inflammatory reaction.
15 male Sprague Dawley rats underwent unilateral implantation of silicon wafer implants. Three animals received implants only, three received implants plus exogenous ATP, three received implants plus exogenous apyrase, an enzyme that scavenges ATP, three underwent surgery alone without an implant, and three received a percutaneous injection of exogenous ATP into the latissimus dorsi muscle. The implants were harvested after 24 hours to evaluate the extent of inflammatory infiltrate and preservation of muscle.

T1 sequence (P17302 whole entry): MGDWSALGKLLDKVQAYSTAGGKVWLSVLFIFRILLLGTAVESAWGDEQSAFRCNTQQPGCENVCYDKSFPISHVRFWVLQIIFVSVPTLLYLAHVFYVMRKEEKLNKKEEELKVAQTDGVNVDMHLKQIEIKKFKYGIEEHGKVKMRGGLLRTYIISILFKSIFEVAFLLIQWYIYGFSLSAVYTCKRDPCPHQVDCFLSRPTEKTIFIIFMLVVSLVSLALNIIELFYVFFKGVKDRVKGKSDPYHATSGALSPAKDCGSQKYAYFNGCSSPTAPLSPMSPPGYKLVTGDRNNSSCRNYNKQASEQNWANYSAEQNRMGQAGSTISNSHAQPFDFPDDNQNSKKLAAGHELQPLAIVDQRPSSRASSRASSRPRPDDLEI

Molecule: IL-6: the inflammatory cytokine IL-6
- ATP release (HMVECs; IL-6 0.01 ng/mL, 5 hours): increased ATP release

Molecule: RQPKIWFPNRRKPWKKRPRPDDLEI [ACT1, Cx43 carboxyl-terminal peptide incorporating aas 373 to 382 of Cx43, U.S. Pat. No. 7,786,074]
- motility across a porous membrane ([1]; Boyden chamber): significantly decreased
- aggregation [1]: higher degree of aggregation
- repopulation of scratch injury (NIH-3T3 cells; 24 hours): few cells repopulating the area
- proliferation of the cells (NIH-3T3 cells): reduced proliferation
- motility across a porous membrane (C6 glioma cell line; C6, Boyden chamber): significantly decreased
- adhesive properties (C6 glioma cell line; C6): did not change
- cell morphology (C6 glioma cell line; C6): altered morphology
- CNV lesion size / injury spread ([2]; relative to PBS controls): significantly reduced; also recorded: reduced CNV injury spread
- retinal function (ERG) ([2]; relative to controls): improved retinal function
- closure, inflammation, healing and scarring of excisional injuries (adult mouse skin wound; 100 μM in 30% pluronic gel, 10-14 day time course): closed faster, were less inflamed in appearance, healed faster and scarred less
- scarring/overall appearance (adult mouse skin wound; 7 and 10 days post-wounding): significantly improved
- wound redness (adult mouse skin wound; 24 hr and 4 days post-wounding): significantly decreased
- wound size (adult mouse skin wound; 24 hr, 4, 7 and 10 days): significantly smaller in size
- peptide in aqueous humor (anterior chamber) ([3]; 100 uM, corneal application, 20 and 40 minutes): detectable level
- peptide in vitreous humor (posterior chamber), Western blotting ([3]; 20 and 40 minutes): Lower levels of peptide could also be detected
- peptide in retinal pigment epithelial layer ([3]; corneal application): detectable in the retinal pigment epithelial layer
- primary inflammatory infiltrate [4]: macrophages
- LV diastolic and systolic function (CD1 mice, LV cryo-injury; 8 week time course): significant improvement
- scar uniformity (CD1 mice, LV cryo-injury; mouse, in vivo): significantly increased scar uniformity
- frequency and severity of arrhythmias (CD1 mice, LV cryo-injury; pacing and S1-S2 protocols): dramatically reduced
- VEGF-dependent drop in TER (ARPE19 cell; pre-treatment with peptide): ameliorated the drop in TER; also recorded: blocked
- NeuN immunolabeled neurons proximal to the HFM (adult rat brain injury): higher numbers
- density of GFAP-positive astrocytes adjacent the HFM (adult rat brain injury): much lower density
- Cx43 hemichannel activity (Cx43 hemichannel): inhibits Cx43 hemichannel activity
- extent of Cx43 gap junction formation between myocytes [5]: greatly increased
- corneal re-epithelialization (SD rat cornea; 24 hrs): re-epithelializing much faster than control corneas
- corneal re-epithelialization (SD rat cornea; 72 hrs): significantly greater re-epithelialization
- corneal closure and regeneration (SD rat cornea; rat, in vivo): faster closure and more complete corneal regeneration
- wound closure, inflammation, swelling ([6]; 60 μM in 20% pluronic gel, 48 hours): significantly more closed, less inflamed, less swollen
- wound appearance / scarring ([6]; 60 μM, 7 days): smoother and less scarred appearance
- neutrophil infiltration ([7]; capsulectomies days 1-28): attenuating neutrophil infiltration
- presence of contractile myofibroblasts ([7]; rat, in vivo): reducing the continued presence of contractile myofibroblasts
- type I collagen deposition around the implant ([7]; rat, in vivo): reducing type I collagen deposition around the implant
- vascularity of the capsule tissue ([7]; rat, in vivo): increasing vascularity of the capsule tissue
- secretion/production of mature, fully processed type I collagen (conditioned media) ([8]; 30, 90, 180 μM, overnight): decreased levels of fully processed collagen I a1 chains; also recorded: dose-dependent reduction
- higher molecular weight collagen species in cell lysate ([8]; ACT1, highest doses of JM1 and JM2): absence of higher molecular weight collagen species
- mature / processed type I collagen in NHF cell lysate ([8]; cell lysates, JM1, JM2 at maximum dose tested): slight decreases in processed collagen I a1 chains
- collagen synthesis, processing and secretion from fibroblasts ([8]; cultured fibroblasts, FIGS. 1 and 2): reduced collagen processing and secretion
- scar area and scar tissue volume / scar size (rat skin wound; 150 μM peptide, 30 days): significantly (p<0.05) smaller
- wound closure rates (rat skin wound; versus the other 4 wounds): significantly faster closure rates

Molecule: Nc1ncnc2c1ncn2[C@@H]1O[C@H](COP(=O)(O)OP(=O)(O)OP(=O)(O)O)[C@@H](O)[C@H]1O [ATP]
- inflammatory infiltrate in the implant region [9]: profound increase in inflammatory infiltrate
- inflammatory infiltrate in skeletal muscle ([9]; percutaneous injection, no implant): more inflammatory infiltrate than the surgery alone; also recorded: causes significant inflammation

Molecule: OC(c1cc(C(F)(F)F)nc2c(C(F)(F)F)cccc12)C1CCCCN1 (stereo not shown) [mefloquine]
- ATP released in response to low Ca2+ (HMVECs; treatment with blocker, preliminary experiments): not inhibited

Molecule: VEGF
- TER (ARPE19 cell; VEGF alone, by 4 hours post-application): significantly (p<0.05) reduces TER; also recorded: rapid deterioration

Molecule: apyrase
- inflammatory infiltrate in the implant region [9]: significantly reduced the inflammatory infiltrate; also recorded: marked decrease in inflammatory infiltrate
